Assay results taken from patent US20250263436A1, “BROAD-SPECTRUM ANTIVIRAL DRUG FOR ENTEROVIRUS, AND APPLICATION” (WUHAN INSTITUTE OF VIROLOGY, CHINESE ACADEMY OF SCIENCES, priority 2020, published 2025).
Where “and” joins values, the source holds several entries; their conditions need not be identical. Equal entries are not always repeated.

Experiments:
Format in all cases: cell-based
Huh7 cells = assay: Toxicity assay in Huh7 cells (CCK-8); settings: Table 14, 24 h
Method: (§1) (1) Different cells were plated in a 96-well plate at 100 μL per well.
(§2) (2) When the cells grew to a confluence of 70%-80%, the DMEM medium containing 10% serum was replaced with a DMEM medium containing 2% serum, and a certain concentration gradient of polypeptide RQ was added, so that the final concentrations of the polypeptide in the wells were 0.073242 μM, 0.146484 μM, 0.292969 μM, 0.585938 μM, 1.171875 μM, 2.34375 μM, 4.6875 μM, 9.375 μM, 18.75 μM, 37.5 μM, 75 μM, 150 μM, and 300 μM, respectively.
(§3) (3) The samples were collected 24 h after the addition of the polypeptide, and then 10 μL of live cell detection reagent CCK-8 was added to each well and mixed well.
(§4) (4) The plate was placed at 37° C. for 2 h.
(§5) (5) The absorbance value at OD450 was detected by a microplate reader.

[1] = Toxicity assay in Huh7 cells (CCK-8); settings: human, Huh7 cells
Method: as §1, §2, §3, §4, §5

[2] = Cytotoxicity of polypeptides in Vero cells (CCK-8); settings: Vero cells, 24 h
Method: (§6) Therefore, this standard was testified by cytotoxicity assay, and the cells without any treatment were used as a control group.
(§7) (1) Vero cells were plated in a 96-well plate at 100 μL per well.
(§8) (2) When the cells grew to a confluence of 70%-80%, the DMEM medium containing 10% serum was replaced with a DMEM medium containing 2% serum, and a certain concentration gradient of polypeptide RQ or LQ or SQ was added, so that the final concentrations of the polypeptide in the wells were 0.073242 μM, 0.146484 μM, 0.292969 μM, 0.585938 μM, 1.171875 μM, 2.34375 μM, 4.6875 μM, 9.375 μM, 18.75 μM, 37.5 μM, 75 μM and 150 μM, respectively.
as §3, §4, §5
(§9) The CC50 of each polypeptide was calculated taking the cell viability of untreated cells as 100%.

Vero cells = assay: Cytotoxicity of polypeptides in Vero cells (CCK-8); settings: Vero cells, 24 h
Method: as §6, §7, §8, §3, §4, §5, §9

RD cells = assay: Toxicity assay in RD cells (CCK-8); settings: 24 h
Method: as §1, §2, §3, §4, §5
(§10) (1) RD cells were plated in a 96-well plate at 100 μL per well.
(§11) (2) When the cells grew to a confluence of 70%-80%, the DMEM medium containing 10% serum was replaced with a DMEM medium containing 2% serum, and B-RQ was added so that the final concentrations in the wells were 0.46 μM, 2.34 μM, 4.68 μM, 9.37 μM, 18.75 μM, 37.5 μM, 75 μM, and 150 μM.

[3] = Toxicity assay in RD cells (CCK-8); settings: human, RD cells, 24 h
Method: as §1, §2, §3, §4, §5, §10, §11

CC[C@H](C)[C@H](NC(=O)[C@H](C)NC(=O)[C@H](CO)NC(=O)[C@H](CCCNC(=N)N)NC(=O)[C@H](CC(N)=O)NC(=O)[C@H](CC(N)=O)NC(=O)[C@H](Cc1ccc(O)cc1)NC(=O)[C@H](CCC(=O)O)NC(=O)[C@H](CCCNC(=N)N)NC(=O)CNC(=O)[C@H](CO)NC(=O)CNC(=O)[C@H](CCCNC(=N)N)NC(=O)[C@H](CCCNC(=N)N)NC(=O)[C@H](CCCNC(=N)N)NC(=O)[C@H](CCC(N)=O)NC(=O)[C@H](CCCNC(=N)N)NC(=O)[C@H](CCCNC(=N)N)NC(=O)[C@H](CCCCN)NC(=O)[C@H](CCCCN)NC(=O)[C@H](CCCNC(=N)N)NC(=O)CNC(=O)[C@@H](N)Cc1ccc(O)cc1)C(=O)NCC(=O)N[C@@H](CC(N)=O)C(=O)N[C@H](C(=O)N[C@H](C(=O)N[C@@H](CCC(=O)O)C(=O)N[C@@H](C)C(=O)N[C@@H](CC(C)C)C(=O)N[C@@H](Cc1ccccc1)C(=O)N[C@@H](CCC(N)=O)C(=O)O)[C@@H](C)CC)[C@@H](C)O [RQ]
Viability of Huh7 cell (%) (Huh7 cells; RQ 0.073242 μM): 113.9801% and 116.7518% | Viability of Huh7 cell (%) (Huh7 cells; RQ 0.146484 μM): 106.6132% and 101.8721% | Viability of Huh7 cell (%) (Huh7 cells; RQ 0.292969 μM): 104.4979% and 102.018% | Viability of Huh7 cell (%) (Huh7 cells; RQ 0.585938 μM): 100.7051% and 101.5074% | Viability of Huh7 cell (%) (Huh7 cells; RQ 1.171875 μM): 97.2% and 99.03% | Viability of Huh7 cell (%) (Huh7 cells; RQ 2.34375 μM): 100.1945% and 96.04% | Viability of Huh7 cell (%) (Huh7 cells; RQ 4.6875 μM): 103.5497% and 101.2886% | Viability of Huh7 cell (%) (Huh7 cells; RQ 9.375 μM): 101.4345% and 97.71% | Viability of Huh7 cell (%) (Huh7 cells; RQ 18.75 μM): 93.41% and 94.29% | Viability of Huh7 cell (%) (Huh7 cells; RQ 37.5 μM): 97.06% and 92.03% | Viability of Huh7 cell (%) (Huh7 cells; RQ 75 μM): 93.27% and 88.09% | Viability of Huh7 cell (%) (Huh7 cells; RQ 150 μM): 67.74% and 51.47% | viability at 24 h, 0.073242 µM ([1]; Table 14, RQ 0.073242 μM, 24 h, read-out: Viability of Huh7 cell (%)): 113% | viability at 24 h, 0.146484 µM ([1]; Table 14, RQ 0.146484 μM, 24 h, read-out: Viability of Huh7 cell (%)): 111% | viability at 24 h, 0.292969 µM ([1]; Table 14, RQ 0.292969 μM, 24 h, read-out: Viability of Huh7 cell (%)): 111% | viability at 24 h, 0.585938 µM ([1]; Table 14, RQ 0.585938 μM, 24 h, read-out: Viability of Huh7 cell (%)): 101% | viability at 24 h, 1.17188 µM ([1]; Table 14, RQ 1.171875 μM, 24 h, read-out: Viability of Huh7 cell (%)): 104% | viability at 24 h, 2.34375 µM ([1]; Table 14, RQ 2.34375 μM, 24 h, read-out: Viability of Huh7 cell (%)): 98.7% | viability at 24 h, 4.6875 µM ([1]; Table 14, RQ 4.6875 μM, 24 h, read-out: Viability of Huh7 cell (%)): 98% | viability at 24 h, 9.375 µM ([1]; Table 14, RQ 9.375 μM, 24 h, read-out: Viability of Huh7 cell (%)): 103% | viability at 24 h, 18.75 µM ([1]; Table 14, RQ 18.75 μM, 24 h, read-out: Viability of Huh7 cell (%)): 101% | viability at 24 h, 37.5 µM ([1]; Table 14, RQ 37.5 μM, 24 h, read-out: Viability of Huh7 cell (%)): 95% | viability at 24 h, 75 µM ([1]; Table 14, RQ 75 μM, 24 h, read-out: Viability of Huh7 cell (%)): 90.9% | viability at 24 h, 150 µM ([1]; Table 14, RQ 150 μM, 24 h, read-out: Viability of Huh7 cell (%)): 65.8% | CC50 at 24 h ([1]; Table 1 (Huh and 293T cells)): > 300 µM | CC50 at 24 h ([2]; African green monkey, CCK-8): > 150 µM | viability at 24 h, 0.073242 µM ([2]; polypeptide 0.073242 μM, read-out: Cell viability (%)): 101% | viability at 24 h, 0.146484 µM ([2]; polypeptide 0.146484 μM, read-out: Cell viability (%)): 93.8% | viability at 24 h, 0.292969 µM ([2]; polypeptide 0.292969 μM, read-out: Cell viability (%)): 92.7% | viability at 24 h, 0.585938 µM ([2]; polypeptide 0.585938 μM, read-out: Cell viability (%)): 92.2% | viability at 24 h, 1.17188 µM ([2]; polypeptide 1.171875 μM, read-out: Cell viability (%)): 116% | viability at 24 h, 2.34375 µM ([2]; polypeptide 2.34375 μM, read-out: Cell viability (%)): 116% | viability at 24 h, 4.6875 µM ([2]; polypeptide 4.6875 μM, read-out: Cell viability (%)): 113% | viability at 24 h, 9.375 µM ([2]; polypeptide 9.375 μM, read-out: Cell viability (%)): 118% | viability at 24 h, 18.75 µM ([2]; polypeptide 18.75 μM, read-out: Cell viability (%)): 111% | viability at 24 h, 37.5 µM ([2]; polypeptide 37.5 μM, read-out: Cell viability (%)): 106% | viability at 24 h, 75 µM ([2]; polypeptide 75 μM, read-out: Cell viability (%)): 110% | viability at 24 h, 150 µM ([2]; polypeptide 150 μM, read-out: Cell viability (%)): 108% | Cell viability (%) (Vero cells; polypeptide 0.073242 μM): 110.2362% and 105.9618% | Cell viability (%) (Vero cells; polypeptide 0.146484 μM): 99.1% and 98.99% | Cell viability (%) (Vero cells; polypeptide 0.292969 μM): 106.7492% | Cell viability (%) (Vero cells; polypeptide 0.585938 μM): 91.56% and 90.78% | Cell viability (%) (Vero cells; polypeptide 1.171875 μM): 115.2981% and 115.5231% | Cell viability (%) (Vero cells; polypeptide 2.34375 μM): 111.0236% and 119.1226% | Cell viability (%) (Vero cells; polypeptide 4.6875 μM): 109.7863% and 118.7852% | Cell viability (%) (Vero cells; polypeptide 9.375 μM): 109.3363% and 99.1% | Cell viability (%) (Vero cells; polypeptide 18.75 μM): 115.4106% and 105.7368% | Cell viability (%) (Vero cells; polypeptide 37.5 μM): 108.5489% | Cell viability (%) (Vero cells; polypeptide 75 μM): 127.5591% and 120.5849% | Cell viability (%) (Vero cells; polypeptide 150 μM): 103.5996% and 100.1125% | Viability of RD cell (%) (RD cells; RQ 0.073242 μM): 100.3321% and 99.8893% | Viability of RD cell (%) (RD cells; RQ 0.146484 μM): 102.3247% and 99.94% | Viability of RD cell (%) (RD cells; RQ 0.292969 μM): 100.2214% and 99.17% | Viability of RD cell (%) (RD cells; RQ 0.585938 μM): 103.5978% and 102.7122% | Viability of RD cell (%) (RD cells; RQ 1.171875 μM): 99% and 99.23% | Viability of RD cell (%) (RD cells; RQ 2.34375 μM): 98.51% | Viability of RD cell (%) (RD cells; RQ 4.6875 μM): 99.45% and 100.8856% | Viability of RD cell (%) (RD cells; RQ 9.375 μM): 100.7196% and 102.6568% | Viability of RD cell (%) (RD cells; RQ 18.75 μM): 103.4317% and 102.4354% | Viability of RD cell (%) (RD cells; RQ 37.5 μM): 103.9852% and 103.5424% | Viability of RD cell (%) (RD cells; RQ 75 μM): 103.5978% and 102.9889% | Viability of RD cell (%) (RD cells; RQ 150 μM): 8.782% and 8.007% | viability at 24 h, 0.073242 µM ([3]; RQ 0.073242 μM, read-out: Viability of RD cell (%)): 99.8% | viability at 24 h, 0.146484 µM ([3]; RQ 0.146484 μM, read-out: Viability of RD cell (%)): 99.2% | viability at 24 h, 0.292969 µM ([3]; RQ 0.292969 μM, read-out: Viability of RD cell (%)): 101% | viability at 24 h, 0.585938 µM ([3]; RQ 0.585938 μM, read-out: Viability of RD cell (%)): 98.9% | viability at 24 h, 1.17188 µM ([3]; RQ 1.171875 μM, read-out: Viability of RD cell (%)): 99.6% | viability at 24 h, 2.34375 µM ([3]; RQ 2.34375 μM, read-out: Viability of RD cell (%)): 98.8% | viability at 24 h, 4.6875 µM ([3]; RQ 4.6875 μM, read-out: Viability of RD cell (%)): 98.3% | viability at 24 h, 9.375 µM ([3]; RQ 9.375 μM, read-out: Viability of RD cell (%)): 98.4% | viability at 24 h, 18.75 µM ([3]; RQ 18.75 μM, read-out: Viability of RD cell (%)): 101% | viability at 24 h, 37.5 µM ([3]; RQ 37.5 μM, read-out: Viability of RD cell (%)): 101% | viability at 24 h, 75 µM ([3]; RQ 75 μM, read-out: Viability of RD cell (%)): 102% | viability at 24 h, 150 µM ([3]; RQ 150 μM, read-out: Viability of RD cell (%)): 8.73% | CC50 at 24 h ([3]; CCK-8): > 150 µM
